Molecular target: Cannabinoid receptor 1 (Rattus norvegicus, UniProt P20272)
Assay: Inhibition of cannabinoid CB1 receptor in Sprague-Dawley rat brain

Cannabinoid receptor 1, sequence (P20272 whole entry): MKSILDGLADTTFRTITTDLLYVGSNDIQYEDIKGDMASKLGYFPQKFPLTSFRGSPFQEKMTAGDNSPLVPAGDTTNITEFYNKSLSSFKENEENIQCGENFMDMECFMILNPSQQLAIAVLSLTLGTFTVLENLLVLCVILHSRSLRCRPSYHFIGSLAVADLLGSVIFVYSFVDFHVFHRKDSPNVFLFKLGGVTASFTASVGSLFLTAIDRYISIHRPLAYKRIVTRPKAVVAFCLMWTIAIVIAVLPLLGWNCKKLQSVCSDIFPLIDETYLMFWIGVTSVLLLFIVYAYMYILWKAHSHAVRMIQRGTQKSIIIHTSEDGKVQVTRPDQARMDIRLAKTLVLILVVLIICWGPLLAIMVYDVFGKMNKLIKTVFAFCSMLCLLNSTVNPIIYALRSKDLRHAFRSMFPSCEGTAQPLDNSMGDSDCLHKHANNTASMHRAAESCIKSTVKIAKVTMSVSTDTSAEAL

SMILES	IC50 [nM]
CCCCCCCCn1nnnc1-c1nn(-c2ccc(Cl)cc2Cl)c(-c2ccc(Cl)cc2)c1C	47.3
Cc1c(-c2nnnn2C2CCCCCC2)nn(-c2ccc(Cl)cc2Cl)c1-c1ccc(Cl)cc1	26.7
Cc1c(-c2nnnn2C(C)(C)C)nn(-c2ccc(Cl)cc2Cl)c1-c1ccc(Cl)cc1	361
Cc1c(-c2nnn(C)n2)nn(-c2ccc(Cl)cc2Cl)c1-c1ccc(Cl)cc1	> 1000
CCCCCCCCn1nnc(-c2nn(-c3ccc(Cl)cc3Cl)c(-c3ccc(Cl)cc3)c2C)n1	50.6
CCCCn1nnnc1-c1nn(-c2ccc(Cl)cc2Cl)c(-c2ccc(Cl)cc2)c1C	87.8
CCCCn1nnc(-c2nn(-c3ccc(Cl)cc3Cl)c(-c3ccc(Cl)cc3)c2C)n1	87.7
Cc1c(-c2nnnn2C)nn(-c2ccc(Cl)cc2Cl)c1-c1ccc(Cl)cc1	1060
Cc1c(-c2nnnn2-c2ccccc2)nn(-c2ccc(Cl)cc2Cl)c1-c1ccc(Cl)cc1	33.8
CCn1nnc(-c2nn(-c3ccc(Cl)cc3Cl)c(-c3ccc(Cl)cc3)c2C)n1	> 1000
Cc1c(-c2nnnn2Cc2ccccc2)nn(-c2ccc(Cl)cc2Cl)c1-c1ccc(Cl)cc1	94.3

Molecular target: Cannabinoid receptor 2 (Homo sapiens, UniProt P34972)
Sequence (P34972 whole entry): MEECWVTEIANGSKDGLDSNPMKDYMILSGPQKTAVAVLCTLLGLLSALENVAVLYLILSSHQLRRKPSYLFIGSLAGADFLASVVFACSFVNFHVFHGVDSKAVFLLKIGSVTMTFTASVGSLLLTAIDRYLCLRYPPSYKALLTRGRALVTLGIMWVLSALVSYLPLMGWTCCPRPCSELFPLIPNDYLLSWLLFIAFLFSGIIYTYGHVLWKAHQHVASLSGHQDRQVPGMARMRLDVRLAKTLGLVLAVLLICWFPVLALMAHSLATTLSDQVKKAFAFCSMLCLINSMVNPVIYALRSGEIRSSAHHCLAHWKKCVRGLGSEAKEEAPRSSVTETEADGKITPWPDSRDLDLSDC
Assay: Displacement of [3H]WIN-55212-2 from human cannabinoid CB2 receptor expressed in CHO cells
Type: cell-based

SMILES	IC50 [nM]
CCc1c(-c2nnnn2C2CCCC2)nn(-c2ccc(Cl)cc2Cl)c1-c1ccc(Br)cc1	1930
Cc1c(-c2nnnn2C2CCCC2)nn(-c2ccc(Cl)cc2Cl)c1-c1ccc(Br)cc1	4240
CCc1c(-c2nnnn2C2CCCC2)nn(-c2ccc(Cl)cc2Cl)c1-c1ccc(Cl)cc1	840
Cc1c(-c2nnnn2C2CCCCCC2)nn(-c2ccc(Cl)cc2Cl)c1-c1ccc(Cl)cc1	818
Cc1c(-c2nnnn2C2CCCCCC2)nn(-c2ccc(Cl)cc2Cl)c1-c1ccc(Br)cc1	> 10000
Cc1c(-c2nnnn2C2CCCC2)nn(-c2ccc(Cl)cc2Cl)c1-c1ccc(Cl)cc1	> 10000

Test system: not listed separately
Assay: Selectivity ratio of IC50 for Sprague-Dawley rat CB1 receptor over IC50 for human CB2 receptor

SMILES	Ratio IC50
Cc1c(-c2nnnn2C2CCCC2)nn(-c2ccc(Cl)cc2Cl)c1-c1ccc(Br)cc1	366

Source: ChEMBL document CHEMBL1143900, “Tetrazole-biarylpyrazole derivatives as cannabinoid CB1 receptor antagonists” (Bioorg Med Chem Lett, 2008)
